Laboratory results published in US12669505B2, “Detection of desmoglein-2 in cancers of epithelial origin” (HDT Bio Corp., priority 2019, dated 2026).

System: ovarian cancer cell lines (OV-CAR)
Assay: Western blot of DSG2 in OV-CAR cell supernatants after cisplatin treatment
Type: cell-based
Procedure: FIGS. 5A, 5B and 5C (collectively FIGS. 5A-5C) show the effect of DSG2 expression in response to cisplatin.
Western Blot. Mini-PROTEAN precast gels (BIO-RAD, Hercules, CA) with 4-15% gradient polyacrylamide are used. A total of 1 μg protein mixed with 2× loading buffer (10 mM Tris-HCl, pH 6.8, 200 mM DTT, 4% SDS, 20% glycerol, 0.2% bromophenol blue) is loaded per lane. Samples are either boiled (B) for 5 min or loaded unboiled (UB). The following running buffer is used: 25 mM Tris, pH 8.3, 0.192 M glycine, 0.1% SDS. After electrophoresis, proteins are transferred to nitrocellulose and incubated with the corresponding antibodies. For detection of DSG2 binding, filters are incubated with recombinant human DSG2 protein and anti-DSG2 antibody 6D8 as described (Wang et al. Nat Med. 2011; 17(1):96-104). Other Western blots use a primary mouse monoclonal antibody followed by an anti-mouse IgG HRP conjugate. Selected Western blots are scanned and quantified using the ImageJ 1.32 software (National Institutes of Health, Bethesda, MD).
In this Example, a potential mode of chemoresistance was investigated, DSG2 protein levels were determined in cancer cells after treatment with cisplatin, a commonly used platinum-based therapeutic used as first-line treatment of ovarian cancer and its metastases.
Cell supernatants from ovarian cancer cell lines (OV-CAR) were first interrogated with monoclonal and polyclonal anti-DSG2 antibodies to confirm specificity of the antibodies. […] Within 2 days of cisplatin treatment, the presence of cleaved DSG2, a product of DSG2 shedding, was detected in cell supernatant (FIGS. 5A and 5B). Quantitative analysis of the blot intensity indicated DSG2 peaking at 2 days after cisplatin treatment.

**Q.** Which “time of DSG2 peak by quantitative analysis of blot intensity” value (OV-CAR cells, after cisplatin treatment, ImageJ, day 0 as control) does the source give for `N.N.[Cl][Pt][Cl]` [cisplatin] here?
**A.** 2 days

**Q.** And the “time until cleaved DSG2 (product of DSG2 shedding) was detected in cell supernatant” value (OV-CAR cells, after cisplatin treatment, Western blot)?
**A.** ≤ 2 days

**Q.** And the “DSG2 response of ovarian cancer cells to treatment” value (cisplatin treatment)?
**A.** upregulated and shed in increased amounts
